In patent US9309537B2, “Chimeric rat produced using rat embryonic stem cells in the presence of an ES cell differentiation suppressant” (National Cancer Center, priority 2009, dated 2016):

Test system: rat ES cells
Experiment: Culture of established rat ES cells with PAC factor or Y factor alone (colony morphology, alkaline phosphatase)
Assay type: cell-based
Conditions: ES cell culture medium on MEF

## C[C@@H](N)[C@H]1CC[C@H](C(=O)Nc2ccncc2)CC1 [Y, Y-27632]
  alkaline phosphatase activity: did not exhibit alkaline phosphatase activity
  undifferentiated state and colony morphology of established rat ES cells: unable to maintain the undifferentiation state
